Consider 1 compound from article PMC4084891, “Decreased Phenotypic Susceptibility to Etravirine in Patients with Predicted Genotypic Sensitivity” (PLoS ONE, 2014).

Like-named read-outs stand apart in the source and are kept apart here. Bounds are passed on as bounds.

For experiment [1], the system named is HIV-1 reverse transcriptase, recovered from plasma of HIV-1 infected patients. Kind of experiment: ExaVir Drug susceptibility assay (RT-based phenotypic), RT recovered from patient plasma. The experiment is classed as biochemical. The protocol: Lysates containing intraviral RT were recovered from plasma using ExaVir Load, version 3 (Cavidi, Uppsala, Sweden). Briefly, virions from up to 1 ml plasma were bound to an ion exchange gel, washed, and the RT was extracted by lysing the purified virions. The RT was used to catalyse the incorporation of bromodeoxyuridine triphosphate (BrdUTP) into DNA via a poly-rA (ribodenylic acid template) plate. The amount of BrdU monophosphate (BrdUMP) incorporated into DNA was detected with an alkaline phosphatase (Ap) conjugated anti-BrdU monoclonal antibody. The Ap substrate para-nitrophenyl-diphosphate was used for colorimetric detection. […] The RT activity at each drug concentration was recalculated into percentage of RT activity in the absence of drug. The IC50 values were calculated using the median effect equation [23]. […] In the present study, two reference recombinant RTs, BH10-wild-type and its mutant form L100I, were analysed together with patient samples in each assay. The results of the phenotypic tests were evaluated independently by two persons (E.A, C.FR.K).

Experiment [2] deals with HIV-1 reverse transcriptase, recovered from plasma of HIV-1 infected patients. Further details: method as in PMID 23364785. As to conditions: cited from earlier work.

As a reminder, the IC50 is the concentration that inhibits the measured activity by half. Consider `Cc1cc(C#N)cc(C)c1Oc1nc(Nc2ccc(C#N)cc2)nc(N)c1Br` [ETR, 4-[[6-amino-5-bromo-2[(4-cyanophenyl)amino]-4-pyrimidinyl]oxy]-3.5-dimethylbenzonitrile], for which the “result of phenotypic assay” value in experiment [1] (patient 4, K103R mutation, NNRTI-naïve) was “sensitive”; in experiment [1] (patients/samples 7, 11b, 15, 9a and 12, NNRTI stopped earlier), “No phenotypic resistance”. The IC50 is 3.1 ± 1.3 µM in experiment [1] (read-out: IC50 to ETR, mean ±SD, ten samples considered sensitive (3a, 4, 7, 9a, 11b, 12, 15, 16, 17, 18)); 6.4 to 13.6 µM in experiment [1] (read-out: IC50 to ETR, range, six samples with decreased susceptibility (1, 9b, 10, 11a, 19, 20)); 11.8 µM in experiment [1] (read-out: IC50 to ETR, patient sample 1); greater than 100 µM in experiment [1] (read-out: IC50 to ETR, patient sample 2); greater than 100 µM in experiment [1] (read-out: IC50 to ETR, patient sample 3b); greater than 100 µM in experiment [1] (read-out: IC50 to ETR, patient sample 6). The IC50 was greater than 100 µM in experiment [1] (read-out: IC50 to ETR, patient sample 8a); greater than 100 µM in experiment [1] (read-out: IC50 to ETR, patient sample 8b); 9.2 µM in experiment [1] (read-out: IC50 to ETR, patient sample 9b); 13.6 µM in experiment [1] (read-out: IC50 to ETR, patient sample 10); 7.3 µM in experiment [1] (read-out: IC50 to ETR, patient sample 11a); 6.4 µM in experiment [1] (read-out: IC50 to ETR, patient sample 19). In addition, the IC50 in experiment [1] (read-out: IC50 to ETR, patient sample 20) is 7.2 µM; in experiment [2] (read-out: IC50 for ETR, mean ± SD (reproducibility analysis, first value), not influenced by RT amount within 40–828 fg/ml RT), 1.6 ± 0.03 µM; in experiment [2] (read-out: IC50 for ETR, mean ± SD (reproducibility analysis, second value), not influenced by RT amount within 40–828 fg/ml RT), 3.1 ± 0.04 µM; in experiment [2] (read-out: IC50 for RT activity in the presence of ETR, mean ±SD, treatment-naïve patients and reference recombinant RTs) it was 2.5 ± 1 µM.
